Measurements from PubChem BioAssay AID504638 (National Center for Advancing Translational Sciences (NCATS), 2011).

System: mouse liver microsomes, stability LC-MS/MS, 1 uM
Experiment: Inhibitors of HPGD: Mouse Liver Microsome Profiling
Settings: at 1 µM, active compounds read high

In the case of `Cc1cc(-c2nnc3n2CCCCC3)c(C)n1-c1ccccc1`, the half-life was 8 min.
`Cc1cccc(-n2cnc3cc(C(=O)N4CCCCC4)ccc32)c1` showed a half-life of 9 min.
